This is an account of results in PubChem BioAssay (NCI).

“And” between values parts separate entries of the source, which are not always exact repeats. Equal values may be shown once.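 Step 1: Grow cells in 96-well plates. Step 2: Expose to compound for 48 hours at 5 concentrations. Step 3: Interpolate endpoints linearly; if unreached, use highest concentration. GI50 marks 50% less growth. TGI is the concentration that stops growth completely.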

The first assay concerns DU-145 prostate. Description: NCI anticancer screen, dose series, 48 h.
For the compound `CC1=C(C(=O)Nc2ccc(Cl)c(Cl)c2)C(c2cccc(Oc3ccccc3)c2)NC(=O)N1` (stereo unspecified), the GI50 is 6.5 µM and the TGI amounted to 33.3 µM.

Regarding `O=C(O)c1ccc(OCc2ccccc2)c(Cl)c1`, the TGI is above 100 µM.

Compound `CCOc1ccncc1[N+](=O)[O-]` registered a TGI above 100 µM.

Compound `Cc1nc2sc3c(c2c(=O)[nH]1)CCCC3` came in with a TGI above 100 µM.

On to `COc1ccc(CCNC(=O)c2ccc(NC3=C(Cl)C(=O)N(Cc4ccccc4)C3=O)cc2)cc1OC`, for which the GI50 was 16.2 µM and the TGI was above 100 µM.

In turn, `O=CN1CCN(CC(O)CN2CCCCC2)CC1` (stereo unspecified) showed a TGI above 100 µM.

In turn, `NCCSc1nc(-c2ccccc2)c(-c2ccccc2)o1` had a TGI above 100 µM.

Another assay relates to TK-10 renal. Description: NCI anticancer screen, dose series, 48 h.
For `COc1ccc(-c2coc3c4c(ccc3c2=O)OCO4)cc1OC`, the TGI was above 100 µM.

On to `O=C1c2ccccc2-c2c1c1ccccc1c(=O)n2CCCCl`, for which the GI50 is 3.26 µM and the TGI came to 14.3 µM.

For `CN1C(=O)/C(=C/c2c(Cl)n(C)c3ccccc23)c2ccccc21`, the GI50 was 9.52 µM and 1.38 µM; the TGI was determined as 2.67 µM.

For the compound `COc1cc2c(c(OC)c1OC)-c1ncc3cc4c(cc3c1C2)OCO4`, the GI50 was 26.2 µM and the TGI stood at 67.3 µM.

With `CC1=C(C(=O)Nc2ccc(Cl)c(Cl)c2)C(c2cccc(Oc3ccccc3)c2)NC(=O)N1` (stereo unspecified), the GI50 is 20.7 µM and the TGI was above 50 µM.

Take `COC(=O)[C@H]1C=C[C@@H](C)n2c(=O)c3cc4ccccc4cc3c(=O)n21`: the TGI is above 100 µM.

The compound `O=C(O)c1ccc(OCc2ccccc2)c(Cl)c1` registered a TGI above 100 µM.

The compound `COc1cc(C=O)c(-c2cc(OC)c(OC)cc2C=O)cc1OC` showed a TGI above 100 µM.

As for `N#CC(C(=O)C(=O)Nc1ccc(Cl)cc1)c1ccccc1` (stereo unspecified), the TGI is above 100 µM.

With `CCOc1ccncc1[N+](=O)[O-]`, the TGI was above 100 µM.

For the compound `COc1c[c]([Hg][O]C(C)=O)c(OC)c(NC(=O)CC(C)=O)[c]1[Hg][O]C(C)=O`, the GI50 is 4.46 µM and the TGI amounted to 14 µM.

In turn, `Cc1nc2sc3c(c2c(=O)[nH]1)CCCC3` had a TGI above 100 µM.

With `O=C(/C=C/c1ccccc1Cl)NC1C=Nc2ccc([N+](=O)[O-])cc2NC1` (stereo unspecified), the TGI was above 100 µM.

Turning to `Cc1ccc(C)c(N=C2NC(=O)C(CC(=O)Nc3ccc(Cl)cc3Cl)S2)c1` (stereo unspecified), the TGI is above 100 µM.

In turn, `Cc1cc(NS(=O)(=O)c2ccc(Nc3c4ccccc4nc4c(C(=O)N5CCN(CCO)CC5)ccc(Cl)c34)cc2)no1` displayed a TGI above 100 µM.

As for `COc1ccc(CCNC(=O)c2ccc(NC3=C(Cl)C(=O)N(Cc4ccccc4)C3=O)cc2)cc1OC`, the GI50 is 11.5 µM and the TGI amounted to 70.9 µM.

`Cc1nc([N+](=O)[O-])cn1CC(=N)N` returned a TGI above 100 µM.

`COC(=O)/C=C/c1c(CC=C(C)C)ncn1C` registered a TGI above 100 µM.

The compound `CC(C)C(=O)Nc1nc2c(ncn2C2OC(CO)C(O)C2O)c(=O)[nH]1` (stereo unspecified) returned a TGI above 100 µM.

`O=CN1CCN(CC(O)CN2CCCCC2)CC1` (stereo unspecified) had a TGI above 100 µM.

Regarding `O=S(=O)(c1ccccc1)C1CN2OC1(S(=O)(=O)c1ccccc1)CC2c1ccc(Br)cc1` (stereo unspecified), the TGI is above 100 µM.

Turning to `NCCSc1nc(-c2ccccc2)c(-c2ccccc2)o1`, the TGI is above 100 µM.

In turn, `CC(=O)O[C@H]1CCC2[C@@H]3CCC4Nc5[nH]ncc5C[C@]4(C)C3CC[C@@]21C` (stereo partly specified) displayed a TGI above 100 µM.

Compound `Cc1cc(C)nc(NS(=O)(=O)c2ccc(NC(=O)c3cccc4c(Nc5ccc(S(N)(=O)=O)cc5)c5ccccc5nc34)cc2)n1` gave a TGI above 100 µM.

For the compound `Cc1cc(S(=O)(=O)O)c(NC(=O)C(=O)Cc2cc(=O)oc3cc(O)ccc23)cc1Cl`, the TGI is above 100 µM.

Another assay deals with NCI-H226 lung. Briefly: NCI anticancer screen, dose series, 48 h.
Turning to `COc1ccc(-c2coc3c4c(ccc3c2=O)OCO4)cc1OC`, the TGI is above 100 µM.

`CN1C(=O)/C(=C/c2c(Cl)n(C)c3ccccc23)c2ccccc21`: the GI50 was 5.05 µM.

For `CC1=C(C(=O)Nc2ccc(Cl)c(Cl)c2)C(c2cccc(Oc3ccccc3)c2)NC(=O)N1` (stereo unspecified), the GI50 is 8.36 µM and the TGI stood at 19.8 µM.

As for `COC(=O)[C@H]1C=C[C@@H](C)n2c(=O)c3cc4ccccc4cc3c(=O)n21`, the TGI was above 100 µM.

Turning to `O=C(O)c1ccc(OCc2ccccc2)c(Cl)c1`, the TGI is above 100 µM.

As for `COc1cc(C=O)c(-c2cc(OC)c(OC)cc2C=O)cc1OC`, the TGI was above 100 µM.

Regarding `N#CC(C(=O)C(=O)Nc1ccc(Cl)cc1)c1ccccc1` (stereo unspecified), the TGI is above 100 µM.

As to `CCOc1ccncc1[N+](=O)[O-]`, the TGI is above 100 µM.

For the compound `COc1c[c]([Hg][O]C(C)=O)c(OC)c(NC(=O)CC(C)=O)[c]1[Hg][O]C(C)=O`, the GI50 was 19.5 µM and the TGI is 42.9 µM.

Turning to `Cc1nc2sc3c(c2c(=O)[nH]1)CCCC3`, the TGI is above 100 µM.

With `O=C(/C=C/c1ccccc1Cl)NC1C=Nc2ccc([N+](=O)[O-])cc2NC1` (stereo unspecified), the TGI was above 100 µM.

With `Cc1ccc(C)c(N=C2NC(=O)C(CC(=O)Nc3ccc(Cl)cc3Cl)S2)c1` (stereo unspecified), the TGI is above 100 µM.

For `Cc1cc(NS(=O)(=O)c2ccc(Nc3c4ccccc4nc4c(C(=O)N5CCN(CCO)CC5)ccc(Cl)c34)cc2)no1`, the TGI is above 100 µM.

For the compound `COc1ccc(CCNC(=O)c2ccc(NC3=C(Cl)C(=O)N(Cc4ccccc4)C3=O)cc2)cc1OC`, the GI50 was 10 µM and the TGI was above 100 µM.

For `Cc1nc([N+](=O)[O-])cn1CC(=N)N`, the TGI was above 100 µM.

`COC(=O)/C=C/c1c(CC=C(C)C)ncn1C`: the TGI was above 89.8 µM.

As to `CC(C)C(=O)Nc1nc2c(ncn2C2OC(CO)C(O)C2O)c(=O)[nH]1` (stereo unspecified), the TGI is above 100 µM.

Compound `O=CN1CCN(CC(O)CN2CCCCC2)CC1` (stereo unspecified) displayed a TGI above 100 µM.

For the compound `O=S(=O)(c1ccccc1)C1CN2OC1(S(=O)(=O)c1ccccc1)CC2c1ccc(Br)cc1` (stereo unspecified), the TGI was above 100 µM.

Take `NCCSc1nc(-c2ccccc2)c(-c2ccccc2)o1`: the TGI was above 100 µM.

`CC(=O)O[C@H]1CCC2[C@@H]3CCC4Nc5[nH]ncc5C[C@]4(C)C3CC[C@@]21C` (stereo partly specified) showed a TGI above 100 µM.

`Cc1cc(C)nc(NS(=O)(=O)c2ccc(NC(=O)c3cccc4c(Nc5ccc(S(N)(=O)=O)cc5)c5ccccc5nc34)cc2)n1`: the TGI was above 100 µM.

For `Cc1cc(S(=O)(=O)O)c(NC(=O)C(=O)Cc2cc(=O)oc3cc(O)ccc23)cc1Cl`, the TGI is above 100 µM.
